Measured values reported in article PMC4957648 (Journal of medicinal chemistry, 2016).
Converted amounts (≈) assume the structure as drawn.

What was measured:
CFTR = conditions: from purified Cif protein and P. aeruginosa PA14; ref 5b; cited from earlier work
[1] = Human liver microsomal stability; format: in vitro ADME; conditions: liver microsomes
Cif [2] = target: T1, Cif (Pseudomonas aeruginosa, UniProt A0A0H2ZD27); assay: Fluorescent-based Cif inhibitory assay; format: biochemical
[3] = Solubility under Cif assay conditions; format: physicochemical
thyroid hormone receptor = assay: Thyroid hormone activity assay, agonist mode; format: cell-based; conditions: for EC50: read-out: TR agonist EC50, GH3.TRE-Luc cells
Cif [4] = target: T1, Cif; assay: Surface plasmon resonance binding to immobilized Cif
[5] = system: polarized monolayers of airway epithelial cells; assay: Cytotoxicity in polarized airway epithelial monolayers; format: cell-based; conditions: concentrations up to 10 μM
GH3.TRE-Luc cells = assay: Cytotoxicity in GH3.TRE-Luc cells; format: cell-based; conditions: concentrations up to 10 μM
Human sEH = target: T2, Human sEH (Homo sapiens, UniProt P34913); assay: biochemical
T2 sequence (P34913 1-555): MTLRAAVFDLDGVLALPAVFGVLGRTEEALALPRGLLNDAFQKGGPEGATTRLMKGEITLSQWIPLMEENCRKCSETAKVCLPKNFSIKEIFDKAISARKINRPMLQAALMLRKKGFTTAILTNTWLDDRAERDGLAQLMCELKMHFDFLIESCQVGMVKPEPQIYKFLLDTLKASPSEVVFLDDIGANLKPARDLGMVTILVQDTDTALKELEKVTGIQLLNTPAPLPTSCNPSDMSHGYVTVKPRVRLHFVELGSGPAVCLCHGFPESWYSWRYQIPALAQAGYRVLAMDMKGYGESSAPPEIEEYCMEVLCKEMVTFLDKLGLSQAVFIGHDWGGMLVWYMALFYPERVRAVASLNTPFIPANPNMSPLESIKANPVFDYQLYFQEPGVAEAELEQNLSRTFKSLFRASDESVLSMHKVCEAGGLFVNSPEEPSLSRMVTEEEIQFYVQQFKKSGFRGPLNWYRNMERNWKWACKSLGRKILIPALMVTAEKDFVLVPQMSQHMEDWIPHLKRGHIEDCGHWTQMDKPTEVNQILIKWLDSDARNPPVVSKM

T1 sequence (A0A0H2ZD27 25-319 limits assumed): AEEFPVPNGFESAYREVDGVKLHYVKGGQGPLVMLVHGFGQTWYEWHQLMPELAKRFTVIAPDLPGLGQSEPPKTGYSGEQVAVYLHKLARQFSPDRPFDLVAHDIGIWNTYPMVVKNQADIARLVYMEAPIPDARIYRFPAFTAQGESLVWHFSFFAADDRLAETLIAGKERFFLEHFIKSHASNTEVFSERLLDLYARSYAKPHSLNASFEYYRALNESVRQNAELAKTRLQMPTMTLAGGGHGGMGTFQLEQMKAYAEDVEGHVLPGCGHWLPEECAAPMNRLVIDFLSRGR

For O=C(O)Cc1cc(I)c(Oc2ccc(O)c(I)c2)c(I)c1 [tiratricol], the “protection of CFTR” value (CFTR) is listed as “protects CFTR”.
CCC(=O)Nc1cc(Cl)c(Oc2ccc(O)c(-c3ccccc3)c2)c(Cl)c1 [Compound 8a] gave a half-life [1] greater than 1 h.
With CCOC(=O)CC(=O)Nc1cc(Cl)c(Oc2ccc(O)cc2)c(Cl)c1 [Compound 1k] the Cif inhibitory activity (Cif [2]; at 50 μM) was “no inhibition” and the solubility [3] was 50 to 100 µM (≈ 19.2 to 38.4 µg/mL).
With CCC(=O)Nc1cc(Br)c(Oc2ccc(O)c(C(C)C)c2)c(Br)c1 [Compound 1c] the “thyroid hormone activity (compounds with different R1)” value (thyroid hormone receptor) was “lowest thyroid hormone activity”.
In the case of CCC(=O)Nc1cc(Cl)c(Oc2ccc(O)c(-c3ccc(NC(N)=O)cc3)c2)c(Cl)c1 [Compound 8h], the “increase in Cif inhibitory potency over lead compound” value (shortened to “increase in Cif inhibitory potency”) (Cif [2]) is reported as roughly 10 fold, the residence time (Cif [4]) is reported as 0.0333 to 0.0667 min and the cytotoxicity [5] is reported as “neither 8c nor 8h showed cytotoxicity”. The cytotoxicity (GH3.TRE-Luc cells) was “neither 8c nor 8h showed cytotoxicity”, the EC50 (thyroid hormone receptor) was greater than 10 µM and the IC50 (Human sEH) was roughly 8 µM.
For CCC(=O)Nc1cc(Cl)c(Oc2ccc(O)c(-c3ccc(C(N)=O)cc3)c2)c(Cl)c1 [Compound 8c, 5′-(2,6-Dichloro-4-propionamidophenoxy)-2′-hydroxy-[1,1′-biphenyl]-4-carboxamide], the “increase in Cif inhibitory potency” value (Cif [2]) was roughly 10 fold, the residence time (Cif [4]) was 0.0333 to 0.0667 min and the cytotoxicity [5] was “neither 8c nor 8h showed cytotoxicity”. The cytotoxicity (GH3.TRE-Luc cells) was “neither 8c nor 8h showed cytotoxicity”, the EC50 (thyroid hormone receptor) was greater than 10 µM and the IC50 (Human sEH) was roughly 8 µM.
For CCC(=O)Nc1cc(Cl)c(Oc2ccc(O)c(-c3ccc(C(C)=O)cc3)c2)c(Cl)c1 [Compound 8j], the “increase in Cif inhibitory potency” value (Cif [2]) was roughly 10 fold, the residence time (Cif [4]) was 0.0333 to 0.0667 min and the EC50 (thyroid hormone receptor) was greater than 10 µM.
With CCOC(=O)CC(=O)Nc1cc(Br)c(Oc2cccc(C(C)C)c2)c(Br)c1 [Compound 1g] the Cif inhibitory activity (Cif [2]; at 50 μM or 25 μM) was “failed to show inhibitory activity” and the solubility [3] was 50 to 100 µM (≈ 25 to 49.9 µg/mL).
In the case of CCOC(=O)CC(=O)Nc1cc(Br)c(Oc2ccc(OC)c(C(C)C)c2)c(Br)c1 [Compound 1h], the Cif inhibitory activity (Cif [2]; at 50 μM or 25 μM) is reported as “failed to show inhibitory activity” and the solubility [3] is reported as 25 to 50 µM (≈ 13.2 to 26.5 µg/mL).
